From US20150175712A1, “ANTAGONIST TO AN ENZYME AND/OR A METABOLITE OF THE KYNURENINE PATHWAY” (ImmuSmol SAS, priority 2012, published 2015)
Entries after “also recorded” stand apart in the source; their conditions may differ.

What was measured:
tumor = conditions: Muller et al 2005; cited from earlier work
[1] = tested on: CD4 positive helper T cells; assay: Proliferation of helper T cells activated with CD3/CD28 antibodies (CFSE); assay type: cell-based; conditions: 3HAA 100 μM, 96 hours
Method: FIG. 21: Suppression of anti-proliferative properties of 3HAA on helper T cells by a 3HAA monoclonal antibody (1B10). CD4 positive T cells were activated by anti CD3/CD28 antibodies cocktail and incubated for 96 hours with either vehicle, 3HAA at 100 μM or 3HAA (100 μM)+IgG anti 3HAA.
We evaluated the ability of the selected anti 3HAA antibody to block the suppressive effect of 3HAA on helper T cells activated with CD3/CD28 cocktail antibodies. Helper T cells were incubated with or without 3HAA and stained with CFSE (carboxyfluorescein succinimidyl ester). […] The selected anti 3HAA antibody is therefore able to inhibit, in vitro, the suppressive effect of 3HAA, e.g. on helper T cells.

[2] = Pilotte et al 2012; cited from earlier work
mastocytoma = conditions: Pilotte et al 2012; cited from earlier work
IDO = IDO (Homo sapiens, UniProt P14902); conditions: Pilotte et al 2012; cited from earlier work
Chain of IDO (P14902 whole entry, species assumed): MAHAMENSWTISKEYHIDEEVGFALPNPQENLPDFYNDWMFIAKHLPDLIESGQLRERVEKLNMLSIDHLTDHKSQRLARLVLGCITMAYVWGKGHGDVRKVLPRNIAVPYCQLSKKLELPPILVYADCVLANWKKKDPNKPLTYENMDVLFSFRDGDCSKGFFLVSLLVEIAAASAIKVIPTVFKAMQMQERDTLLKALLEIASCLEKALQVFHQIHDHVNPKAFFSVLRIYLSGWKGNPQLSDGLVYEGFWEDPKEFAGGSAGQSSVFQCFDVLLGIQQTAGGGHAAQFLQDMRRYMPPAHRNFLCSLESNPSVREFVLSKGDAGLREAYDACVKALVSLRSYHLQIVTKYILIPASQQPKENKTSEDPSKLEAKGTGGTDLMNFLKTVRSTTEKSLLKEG

## Cn1cc(C[C@H](N)C(=O)O)c2ccccc21 [Clone 1MT, 1-Methyl Tryptophan]
tumor
  anti-tumor benefits when administered alone: weak

## Nc1c(O)cccc1C(=O)O [Clone 3HAA, 3-Hydroxy Anthranilic Acid]
[1]
  Effect of 3HAA on proliferation of activated helper T cells: blocked cell proliferation; also recorded: anergy of T cells was induced

## Fc1ccc2c(/C=C/c3nnn[nH]3)c[nH]c2c1 [LM-10, trans-6-Fluoro-3-[2-(1H-tetrazol-5-yl)vinyl]-1H-indole]
[2]
  solubility compared to 1MT: higher
mastocytoma
  benefits in experimental model of mastocytoma: benefits
IDO
  IDO inhibition: does not inhibit
